Experimental data as given in article PMC8699473, “An Easily Expandable Multi-Drug LC-MS Assay for the Simultaneous Quantification of 57 Oral Antitumor Drugs in Human Plasma” (Cancers, 2021).

Experiment: Long-term stability in spiked pooled human plasma

| Structure (SMILES) | Long-term stability, 1 month, -20°C Accuracy [%] (validation standard 2xLLOV) | Long-term stability, 1 month, -80°C Accuracy [%] (validation standard 2xLLOV) | Long-term stability, 2 month, -20°C Accuracy [%] (validation standard 2xLLOV) | Long-term stability, 2 month, -80°C Accuracy [%] (validation standard 2xLLOV) | Long-term stability, 3 month, -20°C Accuracy [%] (validation standard 2xLLOV) | Long-term stability, 3 month, -80°C Accuracy [%] (validation standard 2xLLOV) | Long-term stability, 6 weeks, 4°C, without daylight Accuracy [%] (validation standard 2xLLOV) | Long-term stability, 1 month, -20°C Accuracy [%] (validation standard LLOV) | Long-term stability, 1 month, -80°C Accuracy [%] (validation standard LLOV) | Long-term stability, 2 month, -20°C Accuracy [%] (validation standard LLOV) | Long-term stability, 2 month, -80°C Accuracy [%] (validation standard LLOV) | Long-term stability, 3 month, -20°C Accuracy [%] (validation standard LLOV) | Long-term stability, 3 month, -80°C Accuracy [%] (validation standard LLOV) | Long-term stability, 6 weeks, 4°C, without daylight Accuracy [%] (validation standard LLOV) | Long-term stability, 1 month, -20°C Accuracy [%] (validation standard MOV) | Long-term stability, 1 month, -80°C Accuracy [%] (validation standard MOV) | Long-term stability, 2 month, -20°C Accuracy [%] (validation standard MOV) | Long-term stability, 2 month, -80°C Accuracy [%] (validation standard MOV) | Long-term stability, 3 month, -20°C Accuracy [%] (validation standard MOV) | Long-term stability, 3 month, -80°C Accuracy [%] (validation standard MOV) | further results |
| --- | --- | --- | --- | --- | --- | --- | --- | --- | --- | --- | --- | --- | --- | --- | --- | --- | --- | --- | --- | --- | --- |
| COc1cc2nccc(Oc3ccc(NC(=O)Nc4cc(C)on4)c(Cl)c3)c2cc1OC [Tivozanib] | 101.4 | 95.7 | 98.9 | 101.4 | 96.9 | 95.2 | 93.9 | 99.8 | 96.0 | 95.8 | 100.7 | 92.5 | 97.1 | 86.9 | 97.4 | 95.0 | 102.0 | 101.3 | 100.0 | 98.0 | Long-term stability, 6 weeks, 4°C, without daylight Accuracy [%] (validation standard MOV): 107.6%; Long-term stability, 1 month, -20°C Accuracy [%] (validation standard ULOV): 97.0%; Long-term stability, 1 month, -80°C Accuracy [%] (validation standard ULOV): 92.8%; Long-term stability, 2 month, -20°C Accuracy [%] (validation standard ULOV): 100.9%; Long-term stability, 2 month, -80°C Accuracy [%] (validation standard ULOV): 100.3%; Long-term stability, 3 month, -20°C Accuracy [%] (validation standard ULOV): 96.3%; Long-term stability, 3 month, -80°C Accuracy [%] (validation standard ULOV): 96.2%; Long-term stability, 6 weeks, 4°C, without daylight Accuracy [%] (validation standard ULOV): 100.6% |
| CC(=O)Nc1cccc(-n2c(=O)n(C3CC3)c(=O)c3c(Nc4ccc(I)cc4F)n(C)c(=O)c(C)c32)c1 [Trametinib] | 105.1 | 110.9 | 123.9 | 104.2 | 105.5 | 103.8 | 97.4 | 111.6 | 101.9 | 111.6 | 103.4 | 96.6 | 104.8 | 101.5 | 105.2 | 107.1 | 116.1 | 117.6 | 102.9 | 102.5 | Long-term stability, 6 weeks, 4°C, without daylight Accuracy [%] (validation standard MOV): 103.9%; Long-term stability, 1 month, -20°C Accuracy [%] (validation standard ULOV): 103.2%; Long-term stability, 1 month, -80°C Accuracy [%] (validation standard ULOV): 99.6%; Long-term stability, 2 month, -20°C Accuracy [%] (validation standard ULOV): 119.8%; Long-term stability, 2 month, -80°C Accuracy [%] (validation standard ULOV): 115.3%; Long-term stability, 3 month, -20°C Accuracy [%] (validation standard ULOV): 94.5%; Long-term stability, 3 month, -80°C Accuracy [%] (validation standard ULOV): 106.9%; Long-term stability, 6 weeks, 4°C, without daylight Accuracy [%] (validation standard ULOV): 94.7% |
| CCCS(=O)(=O)Nc1ccc(F)c(C(=O)c2c[nH]c3ncc(-c4ccc(Cl)cc4)cc23)c1F [Vemurafenib] | 102.1 | 105.7 | 110.6 | 108.1 | 97.3 | 105.9 | 86.3 | 105.8 | 101.6 | 104.5 | 98.7 | 106.2 | 114.9 | 85.9 | 104.9 | 106.7 | 116.1 | 119.1 | 92.9 | 96.8 | Long-term stability, 6 weeks, 4°C, without daylight Accuracy [%] (validation standard MOV): 97.8%; Long-term stability, 1 month, -20°C Accuracy [%] (validation standard ULOV): 104.7%; Long-term stability, 1 month, -80°C Accuracy [%] (validation standard ULOV): 101.7%; Long-term stability, 2 month, -20°C Accuracy [%] (validation standard ULOV): 119.0%; Long-term stability, 2 month, -80°C Accuracy [%] (validation standard ULOV): 112.7%; Long-term stability, 3 month, -20°C Accuracy [%] (validation standard ULOV): 89.5%; Long-term stability, 3 month, -80°C Accuracy [%] (validation standard ULOV): 100.8%; Long-term stability, 6 weeks, 4°C, without daylight Accuracy [%] (validation standard ULOV): 94.4% |
| CC1(C)CCC(CN2CCN(c3ccc(C(=O)NS(=O)(=O)c4ccc(NCC5CCOCC5)c([N+](=O)[O-])c4)c(Oc4cnc5[nH]ccc5c4)c3)CC2)=C(c2ccc(Cl)cc2)C1 [Venetoclax] | 102.9 | 104.0 | 104.9 | 111.9 | 85.1 | 101.9 | 99.8 | 111.0 | 109.1 | 105.5 | 115.7 | 101.9 | 99.3 | 92.7 | 99.9 | 103.6 | 109.3 | 110.0 | 100.0 | 99.6 | Long-term stability, 6 weeks, 4°C, without daylight Accuracy [%] (validation standard MOV): 99.5%; Long-term stability, 1 month, -20°C Accuracy [%] (validation standard ULOV): 108.0%; Long-term stability, 1 month, -80°C Accuracy [%] (validation standard ULOV): 102.7%; Long-term stability, 2 month, -20°C Accuracy [%] (validation standard ULOV): 112.4%; Long-term stability, 2 month, -80°C Accuracy [%] (validation standard ULOV): 114.0%; Long-term stability, 3 month, -20°C Accuracy [%] (validation standard ULOV): 92.9%; Long-term stability, 3 month, -80°C Accuracy [%] (validation standard ULOV): 102.2%; Long-term stability, 6 weeks, 4°C, without daylight Accuracy [%] (validation standard ULOV): 95.2% |
| CCC1=C[C@@H]2CN(C1)Cc1c([nH]c3ccccc13)[C@@](C(=O)OC)(c1cc3c(cc1OC)N(C)[C@H]1[C@@](O)(C(=O)OC)[C@H](OC(C)=O)[C@]4(CC)C=CCN5CC[C@]31[C@@H]54)C2 [Vinorelbine] | 97.3 | 110.2 | 108.5 | 94.1 | 98.4 | 97.8 | 75.3 | 118.3 | 110.0 | 98.1 | 109.4 | 101.7 | 118.7 | 85.9 | 90.2 | 88.9 | 89.2 | 92.4 | 98.2 | 93.5 | Long-term stability, 6 weeks, 4°C, without daylight Accuracy [%] (validation standard MOV): 73.1%; Long-term stability, 1 month, -20°C Accuracy [%] (validation standard ULOV): 90.4%; Long-term stability, 1 month, -80°C Accuracy [%] (validation standard ULOV): 92.0%; Long-term stability, 2 month, -20°C Accuracy [%] (validation standard ULOV): 87.6%; Long-term stability, 2 month, -80°C Accuracy [%] (validation standard ULOV): 99.6%; Long-term stability, 3 month, -20°C Accuracy [%] (validation standard ULOV): 92.2%; Long-term stability, 3 month, -80°C Accuracy [%] (validation standard ULOV): 98.1%; Long-term stability, 6 weeks, 4°C, without daylight Accuracy [%] (validation standard ULOV): 56.9% |
